Source: patent US8592344B2, “Pesticidal compositions comprising 4,5-dihydroxyindan-1-one” (Yissum Research Development Company of The Hebrew …, priority 2009, dated 2013)

How the values were obtained:
[1] = system: citrus rust mite, Phyllocoptruta oleivora; experiment: whole plant or invertebrate; format: in vivo; details: recorded 24 h later
Method: The CRM population was obtained from Mineola Tangelo (C. paradisi×C. reticulata) fruits at the Tzrifin farm, on the coastal plain of Israel. No acaricides are being used at this farm, making the location a suitable place for our purposes. In the laboratory the pest was reared on young seedlings (6-8 weeks old) of sour orange (Citrus aurantium).
In order to determine the CRM dose response to the toxin, 0.01, 0.02, 0.05, 0.1, 0.2 and 0.4 mg/ml of RPLC-cleaned toxin, dissolved in a two ml volume of ddH2O, was sprayed on the CRM (thirty CRMs/leaf, in four replicates). The infested seedlings were incubated at 25° C., (12L: 12D). Mite mortality rates were recorded 24 h later.

[2] = system: Agrobacterium tumefaciens (strain ID1); experiment: Antibacterial activity, inhibition haloes of chromatographed fractions; format: cell-based; details: RPLC fraction in 10 μl methanol, 24 hours, 28° C.
Method: The bacterium was grown overnight in glass tubes containing a 5 ml Lennox Broth (LB, Difco). Fifty μl overnight-grown bacterial suspensions were added to 5 ml of LB containing 0.6% agar, and placed into Petri dishes (55 mm diameter). Each of the eluted chromatographed fractions was dried using a rotor evaporator, dissolved in 10 μl of methanol, pipetted into the Petri dishes and incubated at 28° C. Each dish was checked for inhibition haloes 24 hours later; 10 μl methanol alone was used as a control. This procedure was repeated four times to confirm of the toxicity of the fractions. The RPLC-cleaned fraction that was antagonistic to A. tumefaciens was concurrently assayed against the citrus rust mite (describe below).

SMILES: O=C1CCc2c1ccc(O)c2O [argovin, 4,5-dihydroxyindan-1-one]
- mortality at 10 µg/mL ([1]; 0.01 mg/ml sprayed, control 6%): 39%
- mortality at 200 µg/mL ([1]; 0.2 mg/ml sprayed): 100%
- activity against A. tumefaciens (inhibition halo) [2]: active
